Measurements taken from PubChem BioAssay AID248 (DTP/NCI, 2004).
Several values for one entry are separate records, joined by “and”; a condition that tells them apart may be missing. Identical values can stand only once. Toxic doses and inconclusive results are not listed. No stated cut-off is given here; in the data, active means T/C of 150% or more; inactive means T/C below 125%.

Tested on: L1210 leukemia ip in BDF1 mice, survival T/C
Assay: NCI In Vivo Anticancer Drug Screen. Data for tumor model L1210 Leukemia (intraperitoneal) in B6D2F1 (BDF1) mice
Settings: higher = longer survival
Procedure, shortened: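 Survival endpoint. Drug-treated group vs vehicle group, expressed as T divided by C. Tumor passaged by transplantation.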

Measured: T/C

CN(C)/N=N/c1nc[nH]c1C(N)=O
inactive: endpoint: mean survival time, dose: 3.12 mg/kg/injection, schedule: Q#A X Z (ip), vehicle: carboxymethylcellulose (CMC) 100 % of control | endpoint: mean survival time, dose: 3.3 mg/kg/injection, schedule: Q01DX009 (ip), vehicle: carboxymethylcellulose (CMC) 104 % of control | endpoint: mean survival time, dose: 6.2 mg/kg/injection, schedule: Q01DX Z (ip), vehicle: saline 106 % of control | endpoint: mean survival time, dose: 6.25 mg/kg/injection, schedule: Q01DX006 (iv), vehicle: carboxymethylcellulose (CMC) 107 % of control | endpoint: mean survival time, dose: 6.25 mg/kg/injection, schedule: Q01DX Z (im), vehicle: carboxymethylcellulose (CMC) 101 % of control | endpoint: mean survival time, dose: 6.25 mg/kg/injection, schedule: Q01DX Z (ip), vehicle: carboxymethylcellulose (CMC) 106 % of control | endpoint: mean survival time, dose: 6.5 mg/kg/injection, schedule: Q01DX009 (ip), vehicle: carboxymethylcellulose (CMC) 100 % of control | endpoint: mean survival time, dose: 7.5 mg/kg/injection, schedule: Q03HX032 (ip), vehicle: carboxymethylcellulose (CMC) 108 % of control | endpoint: mean survival time, dose: 9.0 mg/kg/injection, schedule: Q01DX001 (ip), vehicle: carboxymethylcellulose (CMC) 101 % of control | endpoint: mean survival time, dose: 11.4 mg/kg/injection, schedule: Q03HX032 (ip), vehicle: carboxymethylcellulose (CMC) 106 % of control | endpoint: mean survival time, dose: 12.5 mg/kg/injection, schedule: Q01DX Z (im), vehicle: carboxymethylcellulose (CMC) 106 % of control | endpoint: mean survival time, dose: 12.5 mg/kg/injection, schedule: Q#A X034 (ip), vehicle: carboxymethylcellulose (CMC) 105 % of control | endpoint: mean survival time, dose: 13.0 mg/kg/injection, schedule: Q01DX009 (ip), vehicle: carboxymethylcellulose (CMC) 100 % of control and 102 % of control | endpoint: mean survival time, dose: 15.0 mg/kg/injection, schedule: Q04DX002 (ip), vehicle: carboxymethylcellulose (CMC) 93 % of control and 110 % of control | endpoint: mean survival time, dose: 18.75 mg/kg/injection, schedule: Q01DX001 (ip), vehicle: carboxymethylcellulose (CMC) 107 % of control | endpoint: mean survival time, dose: 23.7 mg/kg/injection, schedule: Q01DX009 (ip), vehicle: carboxymethylcellulose (CMC) 108 % of control | endpoint: mean survival time, dose: 25.0 mg/kg/injection, schedule: Q01DX005 (ip), vehicle: water 110 % of control | endpoint: mean survival time, dose: 25.0 mg/kg/injection, schedule: Q01DX009 (ip), vehicle: Klucel (hydroxypropylcellulose) (HPC) 104 % of control | endpoint: mean survival time, dose: 25.0 mg/kg/injection, schedule: Q04DX003 (ip), vehicle: other 95 % of control and 103 % of control | endpoint: mean survival time, dose: 26.0 mg/kg/injection, schedule: Q03HX032 (ip), vehicle: carboxymethylcellulose (CMC) 111 % of control | endpoint: mean survival time, dose: 29.0 mg/kg/injection, schedule: Q04DX002 (ip), vehicle: carboxymethylcellulose (CMC) 100 % of control | endpoint: mean survival time, dose: 30.0 mg/kg/injection, schedule: Q## X008 (ip), vehicle: other 101 % of control | endpoint: mean survival time, dose: 31.0 mg/kg/injection, schedule: Q01DX001 (ip), vehicle: carboxymethylcellulose (CMC) 103 % of control | endpoint: mean survival time, dose: 32.0 mg/kg/injection, schedule: Q01DX005 (ip), vehicle: water 101 % of control | endpoint: mean survival time, dose: 39.0 mg/kg/injection, schedule: Q01DX009 (ip), vehicle: steriod suspending solution 108 % of control | endpoint: mean survival time, dose: 39.0 mg/kg/injection, schedule: Q01DX Z (ip), vehicle: steriod suspending solution 108 % of control | endpoint: mean survival time, dose: 50.0 mg/kg/injection, schedule: Q01DX001 (ip), vehicle: water 103 % of control | endpoint: mean survival time, dose: 50.0 mg/kg/injection, schedule: Q01DX Z (oral), vehicle: carboxymethylcellulose (CMC) 109 % of control | endpoint: mean survival time, dose: 50.0 mg/kg/injection, schedule: Q02DX009 (ip), vehicle: carboxymethylcellulose (CMC) 103 % of control | endpoint: mean survival time, dose: 50.0 mg/kg/injection, schedule: Q04DX003 (ip), vehicle: Klucel (hydroxypropylcellulose) (HPC) 110 % of control | endpoint: mean survival time, dose: 50.0 mg/kg/injection, schedule: Q04DX003 (ip), vehicle: other 104 % of control and 106 % of control | endpoint: mean survival time, dose: 50.0 mg/kg/injection, schedule: Q04DX003 (ip), vehicle: water 108 % of control | endpoint: mean survival time, dose: 50.0 mg/kg/injection, schedule: Q07DX003 (oral), vehicle: other 100 % of control | endpoint: mean survival time, dose: 50.0 mg/kg/injection, schedule: Q## X003 (ip), vehicle: carboxymethylcellulose (CMC) 105 % of control | endpoint: mean survival time, dose: 58.0 mg/kg/injection, schedule: Q04DX002 (ip), vehicle: carboxymethylcellulose (CMC) 103 % of control | endpoint: mean survival time, dose: 60.0 mg/kg/injection, schedule: Q## X008 (ip), vehicle: other 107 % of control | endpoint: mean survival time, dose: 62.0 mg/kg/injection, schedule: Q01DX001 (ip), vehicle: carboxymethylcellulose (CMC) 106 % of control | endpoint: mean survival time, dose: 65.0 mg/kg/injection, schedule: Q02DX009 (ip), vehicle: steriod suspending solution 106 % of control and 110 % of control | endpoint: mean survival time, dose: 66.0 mg/kg/injection, schedule: Q04DX003 (ip), vehicle: carboxymethylcellulose (CMC) 107 % of control | endpoint: mean survival time, dose: 100.0 mg/kg/injection, schedule: Q01DX001 (ip), vehicle: steriod suspending solution 110 % of control | endpoint: mean survival time, dose: 100.0 mg/kg/injection, schedule: Q01DX001 (ip), vehicle: water 105 % of control | endpoint: mean survival time, dose: 100.0 mg/kg/injection, schedule: Q04DX002 (ip), vehicle: Klucel (hydroxypropylcellulose) (HPC) 105 % of control | endpoint: mean survival time, dose: 100.0 mg/kg/injection, schedule: Q04DX003 (ip), vehicle: water 110 % of control | endpoint: mean survival time, dose: 100.0 mg/kg/injection, schedule: Q07DX003 (oral), vehicle: other 104 % of control | endpoint: mean survival time, dose: 100.0 mg/kg/injection, schedule: Q## X003 (ip), vehicle: carboxymethylcellulose (CMC) 109 % of control | endpoint: mean survival time, dose: 100.0 mg/kg/injection, schedule: Q## X005 (ip), vehicle: carboxymethylcellulose (CMC) 107 % of control | endpoint: mean survival time, dose: 100.0 mg/kg/injection, schedule: Q#A X Z (ip), vehicle: carboxymethylcellulose (CMC) 102 % of control | endpoint: mean survival time, dose: 108.0 mg/kg/injection, schedule: Q02DX009 (ip), vehicle: steriod suspending solution 105 % of control and 107 % of control | endpoint: mean survival time, dose: 125.0 mg/kg/injection, schedule: Q01DX001 (ip), vehicle: carboxymethylcellulose (CMC) 109 % of control | endpoint: mean survival time, dose: 168.0 mg/kg/injection, schedule: Q01DX001 (ip), vehicle: carboxymethylcellulose (CMC) 107 % of control | endpoint: mean survival time, dose: 180.0 mg/kg/injection, schedule: Q02DX009 (ip), vehicle: steriod suspending solution 101 % of control and 104 % of control | endpoint: mean survival time, dose: 200.0 mg/kg/injection, schedule: Q01DX001 (ip), vehicle: water 108 % of control | endpoint: mean survival time, dose: 200.0 mg/kg/injection, schedule: Q01DX006 (iv), vehicle: carboxymethylcellulose (CMC) 102 % of control | endpoint: mean survival time, dose: 264.0 mg/kg/injection, schedule: Q01DX001 (ip), vehicle: other 110 % of control | endpoint: mean survival time, dose: 300.0 mg/kg/injection, schedule: Q01DX009 (ip), vehicle: steriod suspending solution 108 % of control | endpoint: mean survival time, dose: 300.0 mg/kg/injection, schedule: Q01DX Z (ip), vehicle: steriod suspending solution 108 % of control | endpoint: mean survival time, dose: 300.0 mg/kg/injection, schedule: Q03DX Z (ip), vehicle: carboxymethylcellulose (CMC) 103 % of control | endpoint: mean survival time, dose: 336.0 mg/kg/injection, schedule: Q01DX001 (ip), vehicle: carboxymethylcellulose (CMC) 109 % of control | endpoint: mean survival time, dose: 400.0 mg/kg/injection, schedule: Q01DX009 (ip), vehicle: other 106 % of control and 108 % of control | endpoint: mean survival time, dose: 400.0 mg/kg/injection, schedule: Q01DX009 (ip), vehicle: water 102 % of control | endpoint: mean survival time, dose: 400.0 mg/kg/injection, schedule: Q01DX Z (sc), vehicle: carboxymethylcellulose (CMC) 108 % of control | endpoint: mean survival time, dose: 400.0 mg/kg/injection, schedule: Q## X009 (ip), vehicle: carboxymethylcellulose (CMC) 110 % of control | endpoint: mean survival time, dose: 800.0 mg/kg/injection, schedule: Q01DX Z (oral), vehicle: carboxymethylcellulose (CMC) 96 % of control | endpoint: median survival time, dose: 20.0 mg/kg/injection, schedule: Q01DX009 (ip), vehicle: Klucel (hydroxypropylcellulose) (HPC) 106 % of control | endpoint: median survival time, dose: 20.0 mg/kg/injection, schedule: Q01DX015 (ip), vehicle: Klucel (hydroxypropylcellulose) (HPC) 110 % of control | endpoint: median survival time, dose: 65.0 mg/kg/injection, schedule: Q01DX001 (ip), vehicle: steriod suspending solution 100 % of control | endpoint: median survival time, dose: 65.0 mg/kg/injection, schedule: Q01DX009 (ip), vehicle: Klucel (hydroxypropylcellulose) (HPC) 110 % of control | endpoint: median survival time, dose: 65.0 mg/kg/injection, schedule: Q04DX003 (ip), vehicle: steriod suspending solution 110 % of control | endpoint: median survival time, dose: 108.0 mg/kg/injection, schedule: Q01DX001 (ip), vehicle: steriod suspending solution 110 % of control | endpoint: median survival time, dose: 108.0 mg/kg/injection, schedule: Q01DX014 (ip), vehicle: Klucel (hydroxypropylcellulose) (HPC) 94 % of control | endpoint: median survival time, dose: 108.0 mg/kg/injection, schedule: Q04DX003 (ip), vehicle: steriod suspending solution 110 % of control | endpoint: median survival time, dose: 180.0 mg/kg/injection, schedule: Q01DX001 (ip), vehicle: steriod suspending solution 100 % of control | endpoint: median survival time, dose: 180.0 mg/kg/injection, schedule: Q01DX014 (ip), vehicle: Klucel (hydroxypropylcellulose) (HPC) 108 % of control | endpoint: median survival time, dose: 300.0 mg/kg/injection, schedule: Q01DX001 (ip), vehicle: steriod suspending solution 110 % of control | endpoint: median survival time, dose: 300.0 mg/kg/injection, schedule: Q01DX013 (ip), vehicle: Klucel (hydroxypropylcellulose) (HPC) 105 % of control and 107 % of control | endpoint: median survival time, dose: 300.0 mg/kg/injection, schedule: Q01DX014 (ip), vehicle: Klucel (hydroxypropylcellulose) (HPC) 101 % of control | endpoint: median survival time, dose: 400.0 mg/kg/injection, schedule: Q04DX003 (ip), vehicle: Klucel (hydroxypropylcellulose) (HPC) 110 % of control | endpoint: median survival time, dose: 500.0 mg/kg/injection, schedule: Q01DX001 (ip), vehicle: steriod suspending solution 110 % of control | endpoint: median survival time, dose: 500.0 mg/kg/injection, schedule: Q01DX013 (ip), vehicle: Klucel (hydroxypropylcellulose) (HPC) 105 % of control and 107 % of control | endpoint: median survival time, dose: 500.0 mg/kg/injection, schedule: Q01DX014 (ip), vehicle: Klucel (hydroxypropylcellulose) (HPC) 102 % of control | endpoint: median survival time, dose: 833.0 mg/kg/injection, schedule: Q01DX009 (ip), vehicle: Klucel (hydroxypropylcellulose) (HPC) 110 % of control | endpoint: median survival time, dose: 1600.0 mg/kg/injection, schedule: Q04DX003 (ip), vehicle: Klucel (hydroxypropylcellulose) (HPC) 95 % of control
